The structures appear in SMILES notation. Like-named read-outs stand apart in the source and are kept apart here.

The test system of one experiment is NCI-H1299 cells. Briefly: MTT based cell viability assay on NCI-H1299 cells. Conditions: Homo sapiens, read-out: IC50, growth inhibition on NCI-H1299 cells. On the procedure: Determination of the Cell Growth Inhibiting Activity of 6-(2,6-dichlorophenyl)-2-((4-(4-methylpiperazin-1-yl)phenyl)amino)imidazo[1,2-b]pyrimido[4,5-d]pyridazin-5(6H)-one and Analogs on NCI-H1299 Cells Using a MTT Based Cell Viability Assay
The thawed NCI-H1299 cells were cultured and passaged to the third generation, and the growth state was good and the confluence was about 90%, which began to be used in the experiment. The NCI-H1299 cells were digested with trypsin, centrifuged at 800 rpm for 5 min, the supernatant was discarded, resuspended with fresh culture medium, and counted. 1000 Cells are seeded to each well of a 96-well plate. The cells are incubated at 37° C. in a 5% CO2 cell culture incubator overnight. The tested sample (including the tested compound and the reference compound AZD1775) was diluted continuously to 8 concentrations (the last concentration was negative control of DMSO) with a 1:3 and 1:10 dilution in DMSO respectively: 10 μM, 3.3 μM, 1 μM, 0.33 μM, 0.1 μM, 0.033 μM, 0.01 μM, 0 μM (the final concentration of DMSO was 1%). 5 μL of each concentration was added to 120 μL of culture medium (25 times diluted), and the mixture was shaken well. The overnight cells were taken and the culture medium was removed, 195 μL of fresh culture medium was added to each well, and 5 μL of diluted culture medium containing the corresponding concentration of the tested sample was added respectively, and the culture plate was then placed in the 5% CO2 cell culture incubator at 37° C. for 3 d. After removing the original solution and adding 100 μL of fresh serum-free DMEM culture medium containing MTT (0.5 mg/mL) per well, the culture was continued. The original solution was removed after 4 hrs and 100 μl DMSO was added to each well. The 96-well cell culture plates were shaken away from light for 10 min and readed in a multifunctional reader at 552/630/690 nm to give absorption values (OD values). The data were analyzed using a graphic software (Graph Pad Prism 5.0) and the inhibitory activity of the compound on cell proliferation was plotted in terms of cell survival and compound concentration. The IC50 values were fitted by the S-shaped dose-response curve equation as follows: Y=100/(1+10^(Log C−Log IC50)), where C was the concentration of testing compounds.

For a further experiment, the system named is LoVo cells. Briefly: MTT based cell viability assay on LoVo cells. Conditions: Homo sapiens, 72 h, read-out: IC50, growth inhibition on LoVo cells. On the procedure:
Determination of the Cell Growth Inhibiting Activity of 6-(2,6-dichlorophenyl)-2-((4-(4-methylpiperazin-1-yl)phenyl)amino)imidazo[1,2-b]pyrimido[4,5-d]pyridazin-5(6H)-one and Analogs Thereof on LoVo Cells Using a MTT Based Cell Viability Assay
The thawed LoVo cells were cultured and passaged to the third generation, and the growth state was good and the confluence was about 90%, which began to be used in the experiment. The LoVo cells were digested with trypsin, centrifuged at 800 rpm for 5 min, the supernatant was discarded, resuspended with fresh culture medium, and counted. 6000 Cells are seeded to each well of a 96-well cell culture plate. The cells were incubated at 37° C. in a 5% CO2 cell culture incubator overnight. The tested sample (including the tested compound and the reference compound AZD1775) was diluted continuously to 8 concentrations (the last concentration was negative control of DMSO) with a 1:3 and 1:10 dilution in DMSO respectively: 10 μM, 3.3 μM, 1 μM, 0.33 μM, 0.1 μM, 0.033 μM, 0.01 μM, 0 μM (the final concentration of DMSO was 1%). 5 μL of each concentration was added to 120 μL of culture medium (25 times diluted), and the mixture was shaken well. The overnight cells were taken and the culture medium was removed, 195 μL of fresh culture medium was added to each well, and 5 μL of diluted culture medium containing the corresponding concentration of the tested sample was added respectively, and the culture plate was then placed in the 5% CO2 cell culture incubator at 37° C. for 3 d. After removing the original solution and adding 100 μL of fresh serum-free DMEM culture medium containing MTT (0.5 mg/mL) per well, the culture was continued. The original solution was removed after 4 hrs and 100 μl DMSO was added to each well. The 96-well cell culture plates were shaken away from light for 10 min and readed in a multifunctional reader at 552/630/690 nm to give absorption values (OD values). The data were analyzed using a graphic software (Graph Pad Prism 5.0) and the inhibitory activity of the compound on cell proliferation was plotted in terms of cell survival and compound concentration. The IC50 values were fitted by the S-shaped dose-response curve equation as follows: Y=100/(1+10^(Log C−Log IC50)), where C was the concentration of testing compounds.

The next experiment concerns the target Wee1 kinase (h) (Homo sapiens, UniProt P30291). Briefly: Wee1 kinase (h) detection method, [γ-33P]-ATP filter assay. It is filed as biochemical. Conditions: 10 μM ATP, 40 minutes at room temperature. On the procedure:
Wee1 kinase (h) was incubated with 20 mM Tris/HCl pH 8.5, 0.2 mM EDTA, 500 μM […], 10 mM MgAcetate and 10 μM [γ-^33P]-ATP. Then the stock solution of all compounds under test with 50× concentration in 100% DMSO was added to make the final concentration of 1/0.1/0.01 μM, and then mixed the mixture well. The reaction was initiated by the addition of the Mg/ATP mix. After incubation for 40 minutes at room temperature, the reaction was stopped by the addition of phosphoric acid to a concentration of 0.5%. 10 μL of the reaction liquor was then spotted onto a P30 filtermat and washed four times in 0.425% phosphoric acid and once in methanol prior to drying and scintillation counting. Each compound sample was duplicated in duplicate. The negative control was lack of all the components of Wee1 enzyme, and the positive was addition of 30% phosphoric acid to terminate the reaction. The Wee1 inhibitor AZD1775 was detected at 10/0.01 μM at the same experiment condition.

The mark [1] stands for this setting: 72 h, NCI-H1299 cells, 3 d, MTT.

Wee1 kinase (h), sequence (P30291 whole entry): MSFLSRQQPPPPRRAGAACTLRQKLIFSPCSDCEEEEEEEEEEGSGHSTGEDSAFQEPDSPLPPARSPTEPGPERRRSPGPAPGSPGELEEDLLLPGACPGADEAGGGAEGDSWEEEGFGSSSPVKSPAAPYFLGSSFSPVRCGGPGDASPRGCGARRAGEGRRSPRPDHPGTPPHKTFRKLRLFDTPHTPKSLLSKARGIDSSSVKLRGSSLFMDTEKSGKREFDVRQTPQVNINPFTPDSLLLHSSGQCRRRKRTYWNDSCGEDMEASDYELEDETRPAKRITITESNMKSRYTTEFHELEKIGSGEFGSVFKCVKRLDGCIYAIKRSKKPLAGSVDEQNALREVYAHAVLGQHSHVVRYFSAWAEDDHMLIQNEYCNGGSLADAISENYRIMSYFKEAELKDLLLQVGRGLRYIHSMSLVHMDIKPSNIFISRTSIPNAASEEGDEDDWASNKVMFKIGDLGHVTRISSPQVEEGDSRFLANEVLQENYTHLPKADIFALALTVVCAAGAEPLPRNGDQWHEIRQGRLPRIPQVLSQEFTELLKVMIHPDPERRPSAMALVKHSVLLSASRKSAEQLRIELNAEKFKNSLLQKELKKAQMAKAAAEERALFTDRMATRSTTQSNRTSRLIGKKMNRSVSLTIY

Regarding `Cc1cc(Nc2ncc3c(=O)n(-c4c(F)cccc4F)n4ccnc4c3n2)cc(F)c1N1CCN(C)CC1` [Example 19, 6-(2,6-difluorophenyl)-2-((3-fluoro-5-methyl-4-(4-methylpiperazin-1-yl)phenyl)amino)imidazo[1,2-b]pyrimido[4,5-d]pyridazin-5(6H)-one], the concentration for half-maximal inhibition (IC50) came to 743 nM with NCI-H1299 cells (setting [1]) and 408 nM in the experiment with LoVo cells (LoVo cells, 3 d, MTT). Moreover, the “Inh. (%) of Wee1 kinase” value at Wee1 kinase (h) (C 1 μm) is 92%.
In the same order, the values of `Cc1cc(Nc2ncc3c(=O)n(-c4c(Cl)cccc4Br)n4ccnc4c3n2)ccc1N1CCC(N(C)C)CC1` [Example 49, 6-(2-bromo-6-chlorophenyl)-2-((3-methyl-4-(4-(dimethylamino)piperidin-1-yl)phenyl)amino)imidazo[1,2-b]pyrimido[4,5-d]pyridazin-5(6H)-one] are 337 nM, 272 nM and 91%.
The corresponding values for `Cc1cc(Nc2ncc3c(=O)n(-c4c(C)cccc4F)n4ccnc4c3n2)cc(Cl)c1N1CCN(C)CC1` [Example 52, 6-(2-fluoro-6-methylphenyl)-2-((3-chloro-5-methyl-4-(4-methylpiperazin-1-yl)phenyl)amino)imidazo[1,2-b]pyrimido[4,5-d]pyridazin-5(6H)-one] are 809 nM, 756 nM and 78%.
As to `Cc1cn2c(n1)c1nc(Nc3ccc(N4CCC(N(C)C)CC4)c(C)c3)ncc1c(=O)n2-c1c(Cl)cccc1Cl` [Example 58, 6-(2,6-dichlorophenyl)-2-((3-methyl-4-(4-(dimethylamino)piperidin-1-yl)phenyl)amino)-9-methylimidazo[1,2-b]pyrimido[4,5-d]pyridazin-5(6H)-one], the concentration for half-maximal inhibition (IC50) in the experiment on NCI-H1299 cells (setting [1]) was found to be 151 nM; in the experiment on LoVo cells (LoVo cells, 3 d, MTT) it was 242 nM. Further, the “Inh. (%) of Wee1 kinase” value on Wee1 kinase (h) (C 0.01 μm) is given as 9%.
Consider `Cc1cc(Nc2ncc3c(=O)n(-c4c(F)cccc4F)n4ccnc4c3n2)ccc1N1CCN(C)CC1` [Example 2, 6-(2,6-difluorophenyl)-2-((3-methyl-4-(4-methylpiperazin-1-yl)phenyl)amino)imidazo[1,2-b]pyrimido[4,5-d]pyridazin-5(6H)-one], for which the half-inhibitory concentration (IC50) was determined as 652 nM in the experiment on NCI-H1299 cells (setting [1]) and 406 nM in the experiment on LoVo cells (LoVo cells, 3 d, MTT). In addition, the “Inh. (%) of Wee1 kinase” value on Wee1 kinase (h) (C 1 μm) was 93%.
Regarding `Cc1cc(Nc2ncc3c(=O)n(-c4c(Cl)cccc4Cl)n4ccnc4c3n2)ccc1N1CCN(C)CC1` [Example 3, 6-(2,6-dichlorophenyl)-2-((3-methyl-4-(4-methylpiperazin-1-yl)phenyl)amino)imidazo[1,2-b]pyrimido[4,5-d]pyridazin-5(6H)-one], the IC50 amounted to 178 nM in the experiment on NCI-H1299 cells (NCI-H1299, 72 h) and 236 nM with LoVo cells (LoVo). Besides, the “Inh. (%) of Wee1 kinase” value at Wee1 kinase (h) (C 0.01 μm) came out at 26%; on Wee1 kinase (h) (C 0.1 μm), 76%; on Wee1 kinase (h) (C 1 μm), 96%.
With `Cc1cccc(F)c1-n1c(=O)c2cnc(Nc3ccc(N4CCN(C)CC4)c(Cl)c3)nc2c2nccn21` [Example 51, 6-(2-fluoro-6-methylphenyl)-2-((3-chloro-4-(4-methylpiperazin-1-yl)phenyl)amino)imidazo[1,2-b]pyrimido[4,5-d]pyridazin-5(6H)-one], the IC50 in the experiment on NCI-H1299 cells (setting [1]) worked out at 1220 nM; with LoVo cells (LoVo cells, 3 d, MTT), 998 nM. For the same molecule, the “Inh. (%) of Wee1 kinase” value at Wee1 kinase (h) (C 1 μm) worked out at 88%.
For the molecule `Cc1cn2c(n1)c1nc(Nc3cc(C)c(N4CCC(N(C)C)CC4)c(F)c3)ncc1c(=O)n2-c1c(Cl)cccc1Cl` [Example 59, 6-(2,6-dichlorophenyl)-2-((3-fluoro-5-methyl-4-(4-(dimethylamino)piperidin-1-yl)phenyl)amino)-9-methylimidazo[1,2-b]pyrimido[4,5-d]pyridazin-5(6H)-one], the IC50 with NCI-H1299 cells (setting [1]) was found to be 220 nM; in the experiment with LoVo cells (LoVo cells, 3 d, MTT), 285 nM. On Wee1 kinase (h) (C 0.01 μm), the “Inh. (%) of Wee1 kinase” value worked out at 7%.
With `CN1CCN(c2ccc(Nc3ncc4c(=O)n(-c5c(F)cccc5Cl)n5ccnc5c4n3)cc2Cl)CC1` [Example 21, 6-(2-chloro-6-fluorophenyl)-2-((3-chloro-4-(4-methylpiperazin-1-yl)phenyl)amino)imidazo[1,2-b]pyrimido[4,5-d]pyridazin-5(6H)-one], the 50% inhibitory concentration (IC50) came to 511 nM with NCI-H1299 cells (setting [1]) and 259 nM in the experiment with LoVo cells (LoVo cells, 3 d, MTT). Besides, the “Inh. (%) of Wee1 kinase” value at Wee1 kinase (h) (C 1 μm) stood at 95%.
In the same order, the values of `CN1CCN(c2ccc(Nc3ncc4c(=O)n(-c5c(Cl)cccc5Br)n5ccnc5c4n3)cc2Cl)CC1` [Example 47, 6-(2-bromo-6-chlorophenyl)-2-((3-chloro-4-(4-methylpiperazin-1-yl)phenyl)amino)imidazo[1,2-b]pyrimido[4,5-d]pyridazin-5(6H)-one] are 562 nM, 370 nM and 96%.
For `Cc1cc(Nc2ncc3c(=O)n(-c4c(Cl)cccc4Cl)n4ccnc4c3n2)cc(C)c1N1CCN(C)CC1` [Example 4, 6-(2,6-dichlorophenyl)-2-((3,5-dimethyl-4-(4-methylpiperazin-1-yl)phenyl)amino)imidazo[1,2-b]pyrimido[4,5-d]pyridazin-5(6H)-one], the concentration for half-maximal inhibition (IC50) was determined as 383 nM with NCI-H1299 cells (NCI-H1299, 72 h) and 339 nM with LoVo cells (LoVo). Moreover, the results for the “Inh. (%) of Wee1 kinase” value at Wee1 kinase (h) (C 0.01 μm), on Wee1 kinase (h) (C 0.1 μm) and on Wee1 kinase (h) (C 1 μm) were 16%, 73% and 96%, respectively.
Regarding `Cc1cc(Nc2ncc3c(=O)n(-c4c(C)cccc4Cl)n4ccnc4c3n2)cc(Cl)c1N1CCN(C)CC1` [Example 55, 6-(2-chloro-6-methylphenyl)-2-((3-chloro-5-methyl-4-(4-methylpiperazin-1-yl)phenyl)amino)imidazo[1,2-b]pyrimido[4,5-d]pyridazin-5(6H)-one], the IC50 was determined as 663 nM in the experiment with NCI-H1299 cells (setting [1]) and 560 nM in the experiment on LoVo cells (LoVo cells, 3 d, MTT). In addition, the “Inh. (%) of Wee1 kinase” value is listed as 0% on Wee1 kinase (h) (C 0.01 μm), 46% on Wee1 kinase (h) (C 0.1 μm) and 89% at Wee1 kinase (h) (C 1 μm).

The values above are taken from patent publication US11345710B2, “Imidazo[1,2-b]pyrimido[4,5-d]pyridazin-5(6H)-ones and the use thereof” (IMPACT THERAPEUTICS (SHANGHAI), INC, priority 2017, dated 2022).
